From US20210317454A1, “USE OF A TLR9 AGONIST IN METHODS FOR TREATING COVID-19” (priority 2020, published 2021)
“Also recorded” adds a separate entry of the source. Like-named read-outs stand apart in the source and are kept apart here.

Legend:
[1] = system: SARS-CoV2; conditions: for toxicity in mice: intranasal 2.5 mg/kg, 8 BL6 mice
[2] = system: tumor microenvironment; conditions: cited from earlier work
[3] = system: B16. F10 melanoma mouse models of colon carcinoma pulmonary metastasis; conditions: intranasal administration at very low doses compared with subcutaneous; cited from earlier work
[4] = system: B16. F10 melanoma pulmonary metastasis; conditions: intranasal versus subcutaneous; cited from earlier work
[5] = system: mediastinal lymph node immune cells; format: in vivo, BL6 mice; conditions: both pre and post-infection administration; B cells, CD4+, CD8+, granulocytes, macrophages, dendritic cells
[6] = system: HCV; conditions: cited from earlier work
[7] = system: SARS-CoV2; format: cell-based
[8] = system: Calu3 cells; conditions: dilutions above this excluded from analyses of conditions 1 and 2

tilsotolimod: phosphorothioate oligonucleotide agonist of TLR9, sequence 5LTCG1AACG1TTCG1-X-G1CTTG1CAAG1CT-5′, X glycerol linker, G1 2′-deoxy-7-deazaguanosine (SEQ ID NO. 1) (DNA TCGAACGTTCGGCTTGCAAGCT; phosphorothioate, 7-deazaG, glycerol-linked 3'-3' dimer; (3)..(3) 2′-deoxy-7-deazaguanosine; (7)..(7) 2′-deoxy-7-deazaguanosine; (11)..(12) Linked by is a glycerol linker; (11)..(11) 2′-deoxy-7-deazaguanosine; (12)..(12) 2′-deoxy-7-deazaguanosine; (16)..(16) 2′-deoxy-7-deazaguanosine; (20)..(20) 2′-deoxy-7-deazaguanosine)
infectious SARS-CoV2 titer (TCID50/Lung) ([1]; intranasal 2.5 mg/kg one day after virus exposure, lungs three days post-infection): reduced infection, although not statistically significant
toxicity in mice ([1]; post-treatment group): No toxicity was observed
toxicity in mice ([1]; pre-treatment group): one mouse died, and two showed signs of reduced mobility
Type I IFN pathway and dendritic cell maturation ([2]; IFNα gene signature, MHC class I expression, patient biopsies): Activation of the Type I IFN pathway (induction of an IFNα gene signature) followed by maturation of dendritic cells
time to immune effects in the tumor microenvironment ([2]; biopsies after receiving tilsotolimod): ≤ 24 h
CD8+ cytotoxic T lymphocytes and tumor response ([2]; injected and non-injected tumors): systemic increases in CD8+ cytotoxic T lymphocytes (CTLs) with subsequent reduction of both injected and non-injected tumors
tumor-specific CTLs in tracheobronchial lymph nodes [3]: significant increase
antitumor potency of intranasal relative to subcutaneous treatment [4]: approximately 25 times
number of immune cells in the mediastinal lymph nodes [5]: robust infiltration of immune cells; also recorded: robust changes in the number of immune cells
viral load reductions ([6]; 0.16 mg/kg twice weekly plus ribavirin compared with pegIFN-α2a plus ribavirin): greater
rapid viral response ([6]; HCV-infected patients, all dose groups): none of the patients achieved rapid viral response
tolerability ([6]; subcutaneous 0.08, 0.16, 0.32 mg/kg once weekly and 0.16 mg/kg twice weekly, 4 weeks, with ribavirin): well tolerated with no discontinuations due to treatment-emergent adverse events
cytokine storm ([6]; tilsotolimod trials involving HCV): cytokine storm was not observed
antiviral activity compared with controls ([7]; treatment condition 1: 24 h pre-treatment, then infection for 48 hours): None of the serial dilutions for treatment condition 1 (tilsotolimod 24 h pre-treatment) resulted in significant antiviral activity
reduction in TCID50 ([7]; treatment condition 2: co-treatment with SARS-CoV2 for 48 hours, most effective dilution 0.41 μM): ~1 log
reduction in TCID50 ([7]; treatment condition 3: supernatant of 24 h pretreated Calu3 cells added to fresh cells then infected, 1:10 serial dilution (33 μM)): ~3 log
concentration above which tilsotolimod induced toxicity [8]: above 3 μM
